Measured values as given in patent US4874795A, “Composition for delivery of orally administered drugs and other substances” (priority 1986, dated 1989).
Where two headings read alike, the source gives them in different places.

What was measured:
[1] = cited from earlier work; for absorption in mixed micelle versus alone: mono-olein/sodium taurocholate
[2] = Capacity and stability of the composition as a vitamin A delivery means; assay type: physicochemical; conditions: for Viscosity: cold solution
Description: A composition that included oleic acid, monoglyceride and lysophosphatidyl choline as described in Example I was used for characterizing the capacity of the composition for vitamin A (also as described above). Vitamin A was added in batches to the composition as follows: 1st addition, 0.277 mmoles; 2nd, 0.241; 3rd, 0.276; 4th, 0.262 and 5th, 0.285. […] The millimole ratio of the composition was approximately 2:1:0.1 (oleic acid: mono-olein:lysophosphatidyl choline).
After each addition the approximate amount of time necessary for the complete dissolution of the added vitamin A was recorded, as was the extent of schlierin evident. The time needed to obtain a minimal schlieric effect was generally between 5 minutes and 60 minutes and inversely related to the amount of vitamin A added. After each addition and the achievement of a minimal schlieric effect, the solution was placed in an ice-bath in order to evaluate its stability. The relative viscosity of the cold solution was also recorded. […]

[3] = in vivo; cited from earlier work
[4] = cited from earlier work
[5] = excess bile salts, cited from earlier work
[6] = cited from earlier work; for biological activity: oral
[7] = cited from earlier work; remark: listed apart in the source
[8] = oral, cited from earlier work
[9] = rat, in vivo
Description: Tritium labeled (^3 H) vitamin A ([…]; Hoffman LaRoche) was incorporated into a lipid formulation of the following composition: 56 mg. of oleic acid (NuCheck Prep, Inc.); 36 mg. of mono-olein (NuCheck Prep, Inc.) and 6 mg. of lysophosphatidyl choline derived from soy lecithin (A. E. Staley Mfg. Co.). This corresponds to an approximate molar ratio of oleic acid: mono-olein: lysophosphatidyl choline of 2:1:0.1. (The approximate molar percentages of the components were 64.5:32.3:3.2, respectively). The composition was administered to Sprague-Dawley rats (weighing 210-230 gm) by gavage.
Tritium-labeled vitamin A (7mg. or 0.25 millimoles) was administered to Sprague-Dawley rats (as above) in 99 mg. food grade, refined corn oil (A. E. Staley Mfg. Co.).
The concentration of vitamin A equivalents in the plasma was measured by obtaining duplicate 0.05 ml. blood samples from the orbital sinus at 0.5, 1, 2, 3, 4, 6, 8 and 24 hours after administration. The blood was collected in hematocrit tubes and centrifuged; the plasma was transferred into tared scintillation vials and weighed. The radioactivity was determined by liquid scintillation counting.

[10] = 1st addition, total 0.277 mmoles
[11] = 2nd addition, total 0.518 mmoles
[12] = 3rd addition, total 0.794 mmoles
[13] = 4th addition, total 1.056 mmoles
[14] = 5th addition, total 1.341 mmoles

In the case of `O=c1[nH]cc(F)c(=O)[nH]1` [5-fluorouracil], the “absorption in mixed micelle versus alone” value ([1]; large intestine) is listed as “greater” and the “absorption in mixed micelle versus alone” value ([1]; stomach or small intestine) is listed as “little difference”.
With `CC1=C(/C=C/C(C)=C/C=C/C(C)=C/CO)C(C)(C)CCC1` [Vitamin A] the Schleirin [2, 10] was “none”, the “Temp. to attain a clear solution” value [2, 10] was 20 °C and the “Time to attain a clear solution” value ([2]; 1st addition, total 0.277 mmoles, 20° C.) was 1 min. The Viscosity [2, 10] was “normal”, the Schleirin [2, 11] was “minimal” and the “Temp. to attain a clear solution” value [2, 11] was 20 °C. The “Time to attain a clear solution” value ([2]; 2nd addition, total 0.518 mmoles, 20° C.) was 1 min, the Viscosity [2, 11] was “normal” and the Schleirin [2, 12] was “medium”. For the same compound, the “Temp. to attain a clear solution” value [2, 12] was 37 °C, the “Time to attain a clear solution” value ([2]; 3rd addition, total 0.794 mmoles, 37° C.) was 5 min and the Viscosity [2, 12] was “thicker”. For the same compound, the Schleirin [2, 13] was “medium”, the “Temp. to attain a clear solution” value [2, 13] was 37 °C and the “Time to attain a clear solution” value ([2]; 4th addition, total 1.056 mmoles, 37° C.) was 10 min. For the same compound, the Viscosity [2, 13] was “viscous”, the Schleirin [2, 14] was “extensive” and the “Temp. to attain a clear solution” value [2, 14] was 46 °C. For the same compound, the “Time to attain a clear solution” value ([2]; 5th addition, total 1.341 mmoles, 46° C.) was 10 min, the Viscosity [2, 14] was “very viscous” and the “total vitamin A added (capacity of the composition)” value ([2]; approximately 1 gm of the composition, after 5th addition) was 1.341 mmol.
For `CCCCCCCCCC(=O)O` [decanoic], the “absorbed fatty acid transported in the lymph” value [3] is given as 5-20%.
For `C[C@]12CC[C@@H]3c4ccc(O)cc4CC[C@H]3[C@@H]1CC[C@@H]2O` [estradiol], the “initial concentrations in plasma of estradiol relative to lymph” value ([4]; 2:1:2 composition, excess bile salts) is listed as “greater than those in lymph”, the “estradiol co-absorbed with lipid and entering circulation via thoracic lymph” value ([4]; 2:1:2 fatty acids:monoglycerides:bile salts) is listed as 25-50% and the “estradiol remaining in 2:1:2 micellar composition” value ([5]; with phosphatidyl choline) is listed as 70-75%. The “estradiol remaining associated with 2:1:2 micellar composition” value ([5]; without phosphatidyl choline) was “about 60%”.
In the case of `COC1=CC(=O)C[C@@H](C)[C@]12Oc1c(Cl)c(OC)cc(OC)c1C2=O` [griseofulvin], the absorption ([6]; co-administered with high fat content meal or in oil and water emulsion) is given as “enhanced”.
For `CCCCCCCCCCCC(=O)O` [lauric], the “absorbed fatty acid transported in the lymph” value [3] is listed as 15-55%.
In the case of `CCCCC/C=C\C/C=C\CCCCCCCC(=O)O` [linoleic], the “absorption into lymph compared with saturated fatty acids” value [3] is given as “more rapidly and to a greater extent”.
In the case of `CCCCCCCCCCCCCC(=O)O` [myristic], the “absorbed fatty acid transported in the lymph” value [3] is listed as 68-80% and the “absorption of fatty acid” value [3] is listed as 80-90%.
For `CCCCCCCC/C=C\CCCCCCCC(=O)OC[C@@H](O)COP(=O)([O-])OCC[N+](C)(C)C` [oleoyl lysophosphatidyl choline], the “increase in triglyceride and phospholipid in lymphatic transported fat” value ([7]; versus lysophosphatidyl choline from mainly saturated phosphatidyl choline) is given as 100%.
In the case of `CCCCCCCCCCCCCCCC(=O)O` [palmitic], the “absorbed fatty acid transported in the lymph” value [3] is given as 85% and the “absorption of fatty acid” value [3] is given as 65-70%.
For `CC(=O)[C@H]1CC[C@H]2[C@@H]3CCC4=CC(=O)CC[C@]4(C)[C@H]3CC[C@]12C` [progesterone], the biological activity ([6]; in combination with cholesterol or its esters) is given as “good sustained biological activity”.
In the case of `CCCCCCCCCCCCCCCCCC(=O)O` [stearic], the “absorbed fatty acid transported in the lymph” value [3] is given as 85% and the “absorption of fatty acid” value [3] is given as 30-45%.
For `[H]/N=C(/N)N[C@H]1[C@H](O)[C@@H](O)[C@H](O[C@@H]2O[C@@H](C)[C@](O)(C=O)[C@H]2O[C@@H]2O[C@@H](CO)[C@H](O)[C@@H](O)[C@@H]2NC)[C@@H](N/C(N)=N\[H])[C@@H]1O` [streptomycin], the “absorption from rectum and large intestine” value ([1]; in vivo) is given as “comparable”, the “absorption via rectum and large intestine versus comparable dose administered duodenally” value ([1]; in vivo) is given as “markedly greater” and the “absorption without micelle formulation” value ([1]; in vivo) is given as “poorly absorbed”.
In the case of `CCCCCCCCCCC(=O)O[C@H]1CC[C@H]2[C@@H]3CCC4=CC(=O)CC[C@]4(C)[C@H]3CC[C@]12C` [testosterone undecanoate], the biological activity ([6]; peanut oil solution versus aqueous micro-crystalline suspension) is listed as “more biologically active”.
For `COC1=C(OC)C(=O)C(C/C=C(\C)CC/C=C(\C)CC/C=C(\C)CC/C=C(\C)CC/C=C(\C)CC/C=C(\C)CC/C=C(\C)CC/C=C(\C)CC/C=C(\C)CCC=C(C)C)=C(C)C1=O` [ubidecarenone], the absorption of ubidecarenone ([8]; drug alone) is given as 2.3% and the absorption of ubidecarenone ([8]; in mixture of C12-18 fatty acids and monoglycerides) is given as 8.3%.
In the case of Corn Oil, the “absorption of vitamin A” value [9] is reported as “complete” and the “vitamin A absorbed” value ([9]; po, 180 min) is reported as 77%.
For gentamycin, the “absorption from rectum and large intestine” value ([1]; bile salt: mixed lipid micelle) is given as “comparable” and the “absorption via rectum and large intestine versus comparable dose administered duodenally” value ([1]; mixed lipid micelle, duodenal concentration even four times higher) is given as “markedly greater”.
For heparin, the “absorption from large intestine relative to small intestine” value ([1]; in vivo) is listed as “twice”, the “absorption without micelle formulation” value ([1]; in vivo) is listed as “poorly absorbed” and the “concentration in mixed micelle for potentiation, large intestine relative to small intestine” value ([1]; in vivo) is listed as “approximately one-fourth”. The “effect of mixed micelles on absorption” value ([1]; in vivo) was “promotes the absorption”.
For lysophosphatidyl choline, the “absorption of lysophosphatidyl choline” value ([7]; in vivo) is given as “rapidly absorbed intact”.
